Like-named read-outs stand apart in the source and are kept apart here.
Experiments:
[1] = system: respiratory syncytial virus Long strain; test: Antiviral activity against respiratory syncytial virus in HEp-2 cells (MTT cell protection); type: cell-based; settings: for EC50: human respiratory syncytial virus, read-out: EC50 (concentration that produces 50% cell protection)
Procedure: The antiviral activity of these compounds against respiratory syncytial virus was determined in HEp-2 (ATCC CCL 23) cells that were seeded in 96 well microtiter plates at 1.5×10^4 cells/100 μL/well in DMEM (Dulbecco's Modified Eagle's Medium) supplemented with penicillin, streptomycin, glutamine, and 10% fetal bovine serum. The cells were incubated overnight at 37° C., the culture medium was removed, and cells were infected (100 μL volume in medium containing 2% fetal bovine serum) with respiratory syncytial virus Long strain at 5000 plaque forming units/mL. The compounds, 100 μL at appropriate dilution, were added to the cells 1 hour post infection. After incubation for 4 days at 37° C., the plates were stained with MTT solution (3-[4,5-dimethlythiazol-2-yl]-2,5-diphenyltetrazolium bromide) and incubated for 4 hours at 37° C. The media was aspirated from the cells and 100 μL/well of acidified isopropanol (per liter: 900 mL isopropanol, 100 mL Triton X100, and 4 mL conc. HCl) was added. Plates were incubated for 15 minutes at room temperature with shaking, and an optical density (OD 540) reading at 540 nanometer (nm) was obtained. The optical density reading is proportional to the number of viable cells. The increase in the number of viable cells reflects the protective, antiviral activity of the compound. Assays comparing MTT staining in uninfected cells containing compound with uninfected cells in the absence of compound provide a measure of cellular toxicity.
The antiviral activity of compounds, designated as EC50, is presented as a concentration that produces 50% cell protection in the assay. […]

[2] = acid used as salt former; cited from earlier work

For `NC(=O)c1ncn([C@@H]2O[C@H](CO)[C@@H](O)[C@H]2O)n1` [Ribavirin], the cell protection ([1]; at 2.5 μg/mL (corresponding to 10.2 μM)) was 100% and the EC50 ([1]; 96 h, HEp-2 cells, RSV Long strain, 4 days, MTT) was 3000 nM.

With `O=c1n(Cc2nc3ccccc3n2CCCCO)c2cnccc2n1C1CC1` [compound II] the EC50 ([1]; HEp-2, 96 h) was 60 nM.

For `O=C(O)/C=C/C(=O)O` [fumaric acid], the “first pKa” value [2] is given as ~3.

For `O=C(O)/C=C\C(=O)O` [maleic acid], the “first pKa” value [2] is given as ~2.

Reference: US6737428B2, “BIS hydrochloride monohydrate salt of RSV fusion inhibitor” (Bristol-Myers Squibb Company, priority 2001, dated 2004)
